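Assay format: 96-well plates, 48-hour exposure. At the GI50, growth is halved. TGI: concentration producing complete growth inhibition.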
Experiments:
Experiment in all cases: growth of human tumour cells (NCI), 48 h
UACC-257 melanoma = tested on: UACC-257 melanoma
HL-60(TB) leukemia = tested on: HL-60(TB) leukemia
HT29 colon = tested on: HT29 colon
SNB-19 CNS = tested on: SNB-19 CNS
U251 CNS = tested on: U251 CNS
IGROV1 ovarian = tested on: IGROV1 ovarian
OVCAR-3 ovarian = tested on: OVCAR-3 ovarian
COLO 205 colon = tested on: COLO 205 colon
NCI-H522 lung = tested on: NCI-H522 lung
NCI-H460 lung = tested on: NCI-H460 lung

| SMILES | TGI (UACC-257 melanoma) [µM] | TGI (HL-60(TB) leukemia) [µM] | TGI (HT29 colon) [µM] | TGI (SNB-19 CNS) [µM] | TGI (U251 CNS) [µM] | TGI (IGROV1 ovarian) [µM] | TGI (OVCAR-3 ovarian) [µM] | TGI (COLO 205 colon) [µM] | TGI (NCI-H522 lung) [µM] | TGI (NCI-H460 lung) [µM] | GI50 (UACC-257 melanoma) [µM] | GI50 (HL-60(TB) leukemia) [µM] | GI50 (HT29 colon) [µM] | GI50 (SNB-19 CNS) [µM] | GI50 (U251 CNS) [µM] | GI50 (IGROV1 ovarian) [µM] | GI50 (OVCAR-3 ovarian) [µM] | GI50 (COLO 205 colon) [µM] | GI50 (NCI-H522 lung) [µM] | GI50 (NCI-H460 lung) [µM] |
| --- | --- | --- | --- | --- | --- | --- | --- | --- | --- | --- | --- | --- | --- | --- | --- | --- | --- | --- | --- | --- |
| O=C1C(=Cc2ccc(F)cc2)C(=O)c2ccccc21 | > 100 | > 100 | > 100 | > 100 | > 100 | > 100 | > 100 | > 100 | > 100 | > 100 |  |  |  |  |  |  |  |  |  |  |
| C=C1C(=O)OC2(C)CCC1CC1OC1(C)CCC=C(C)CCC2O (stereo not given) | > 100 | > 100 | > 100 | > 100 | > 100 | > 100 | > 100 | > 100 | > 100 | > 100 |  |  |  |  |  |  |  |  |  |  |
| Cn1cccc1-c1cc(-c2ccccc2)nc(N)c1C#N | > 100 | > 100 | > 100 | > 100 | > 100 | > 100 | > 100 | > 100 | > 100 | > 100 | > 100 | 0.761 | > 100 | > 89.5 | > 100 | > 100 | > 67.7 | > 100 | > 78.2 | > 100 |
| CC1=C(SCCC(=O)OC(C[Se]C2=C(C)C(=O)c3ccccc3C2=O)C(=O)NC(C)(C)C)C(=O)c2ccccc2C1=O (stereo not given) | 3.2 | 2.39 | 3.39 | 2.08 | 1.57 | 2.1 | 2.74 | 3.14 | 3.4 | 2.06 | 1.76 | 0.68 | 1.78 | 0.867 | 0.45 | 0.771 | 1.43 | 1.66 | 1.57 | 0.44 |
| CC1(C2CCC3(C)C(C2)C3Sc2ccccc2)OCCO1 (stereo not given) | 41.5 | 29.7 | 41.4 | 82.6 | 42.8 | > 100 | 30 | 35.8 | 40.9 | 46.5 |  |  |  |  |  |  |  |  |  |  |
| NC(=O)c1nc(-c2ccc(Cl)c(Cl)c2)nc2ccccc12 | > 100 | > 100 | > 100 | > 100 | > 100 | > 100 | > 29.4 | > 100 | > 100 | > 100 |  |  |  |  |  |  |  |  |  |  |
| NC1=C(O)C(=O)C(c2c[nH]c3ccc(OCc4ccccc4)cc23)O1 (stereo not given) | > 100 | > 100 | > 100 | > 100 | > 100 | > 100 | > 100 | > 100 | > 100 | > 100 |  |  |  |  |  |  |  |  |  |  |
| CCOc1ccccc1NC(=O)C1=C(C)NC(C)=C(C(=O)Nc2ccccc2OCC)C1c1cccc([N+](=O)[O-])c1 | > 100 | > 100 | > 100 | > 100 | > 100 | > 100 | > 100 | > 100 | > 100 | > 100 |  |  |  |  |  |  |  |  |  |  |
| CCCCCCCCc1cc(O)ccc1O | 56.7 | 16.2 | 49.4 | 39.9 | 40.6 | 43.8 | 30 | 68.7 | 25.3 | 33.1 | 18.6 | 3.53 | 16.1 | 18.5 | 18.5 | 17.7 | 15.4 | 30.1 | 5.65 | 17.3 |
| C1CC[N-]CC1.CC(=N\O)/C(C)=N/O.CC(=N\O)/C(C)=N/O.C[CH-]C(C)O.[Co+2] | 40.2 | 45.7 | > 100 | > 100 | 31.5 | > 100 | 51.7 | 29 | 22 | 30.5 | 18.2 | 14.5 | 34.3 | 49.6 | 17.7 | 31.7 | 17.4 | 14.9 | 10.3 | 16.8 |
| CNC(=O)c1cc(-c2ccc(F)cc2)cc(-c2ccc(S(=O)(=O)N3CCCC3)cc2)c1N | > 25 | > 25 | > 25 | > 25 | > 25 | > 25 | > 25 | > 25 | > 25 | > 25 | > 22.6 | 7.41 | 15.7 | > 25 | 15.1 | > 25 | 18.2 | 23.5 | 22.3 | 15.1 |
| CCOC(=O)N(O)c1ccc(/C=C/c2ccccc2)cc1 | 2.49 | 40.5 | 31.5 | > 100 | 29.2 | 3.21 | 15.7 | 38.5 | 28 | 15.6 | 0.421 | 8.59 | 8.3 | 18.5 | 4.72 | 0.319 | 3.16 | 13.2 | 7 | 0.913 |
| CCCCOP1(=O)CC(C)=C(Cl)C(C)(OC)C1 (stereo not given) | > 100 | 69 | > 100 | > 100 | > 100 | > 100 | > 100 | > 100 | > 100 | > 100 |  |  |  |  |  |  |  |  |  |  |
| COc1cc(CCc2ccncc2)cc(OC)c1OC | > 100 | > 100 | > 100 | > 100 | > 100 | > 100 | > 100 | > 100 | > 100 | > 100 |  |  |  |  |  |  |  |  |  |  |
| O=S(=O)(Nc1ccc(Cl)c(Cl)c1)c1ccc(-c2cnc(C3CC3)o2)cc1 | 27.1 | 3.47 | 16.8 | 17.1 | 16.3 | 15.8 | 0.967 | 3.36 | 15.1 | 11.6 | 4.62 | 0.274 | 0.403 | 0.534 | 0.607 | 0.587 | 0.277 | 0.501 | 0.329 | 0.368 |
| C[C@H]1CC[C@@H]2[C@@H](C)[C@H]3[C@H](C[C@H]4[C@@H]5CC=C6C[C@@H](O)CC[C@]6(C)[C@H]5CC[C@]34C)N2C1 | > 100 | 54 | 43 | > 100 | > 100 | > 100 | > 100 | 39.2 | > 100 | > 100 |  |  |  |  |  |  |  |  |  |  |
